Experimental findings from publication PMC9569971, “New Oxazolo[5,4-d]pyrimidines as Potential Anticancer Agents: Their Design, Synthesis, and In Vitro Biological Activity Research” (International Journal of Molecular Sciences, 2022) are described below.

Data set [1] is described as follows: MTT viability assay, NHDF. It is filed as cell-based, human. The settings on record: human, normal human dermal fibroblasts (NHDF), tested 1–500 µM.
Data set [2] deals with metastatic colon adenocarcinoma (LoVo). Kind of data set: MTT viability assay, LoVo. Type of data set: cell-based, human. The procedure:
When the confluence was greater than 70%, adherent cell lines were detached from the bottle surface with a TrypLE solution and then used in assays or reduced. The cells were collected into centrifuge tubes and centrifuged at 1000× g for 5 min at room temperature. The supernatant was removed to dry. The cell pellets were then resuspended in an appropriate medium. The cells were counted using a Bürker chamber and resuspended in 96-well plates to a cell density of 10,000 cells per well for MTT assay. For the rhodamine accumulation test and the detection of apoptosis assay, cells were seeded at a density of 30,000 per well. In the migration assay, cells were seeded at a density of 20,000 per well, and monolayer formation was awaited.
In this study, normal human dermal fibroblasts (NHDFs), breast cancer cells (MCF7), human lung adenocarcinoma cells (A549), murine fibroblasts (L929), colon adenocarcinoma cells (HT29), and colorectal adenocarcinoma cells (LoVo) were used. All cell lines were cultured in the recommended media. […] The human lung adenocarcinoma cell line A549 and breast cancer cell line MCF-7 were obtained from the ECACC. These cell lines were cultured in Eagle’s minimal essential medium (MEM). Murine fibroblast L929 (Sigma-Aldrich, Merck Group, Headquarters, Darmstadt, Germany; the European Collection of Authenticated Cell Cultures—ECACC) cells were grown in DMEM. […] All media were supplemented with 10% FBS and 100 µg/mL of penicillin–streptomycin.
All compounds were dissolved in DMSO and the reference drugs were dissolved in physiological saline to concentrations of 10 mM. Concentrations from 1 to 500 μM in the media recommended for the cell lines were prepared for the tests.
All of the synthesized derivatives were evaluated via the MTT assay. All cell lines were seeded into 96-well plates at a density of 10,000 cells per well. To allow the cells to adhere to the surface of the plates, they were incubated overnight before the application of the test compounds. […] The tests were performed for concentrations of 1, 5, 10, 25, 50, 100, 250, and 500 μM. The solutions of the test compounds were removed from the culture on the 96-well plates. […] The supernatant was then removed. The violet crystal was dissolved in isopropanol for 30 min by shaking. Absorbance was measured at 570 nm.
Biological assays were performed in three independent replicates, and each replicate used four samples. Three repetitions were made for the ELISA determinations. For the assessment of cytotoxicity, mathematical models were developed using the GraphPad PRISM software, based on which CC50 was determined. The values of CC50 were estimated based on nonlinear regression using the dependence of the biological effect on the molar concentrations of the compounds (four-parameter logistic model with Hill slope).

For data set [3], the system named is primary colon adenocarcinoma (HT29). Kind of data set: MTT viability assay, HT29. Type of data set: cell-based, human. The settings on record: for CC50: tested 1–500 µM.
For another data set, the system named is Caspase-3. Kind of data set: Human Caspase-3 (Active) ELISA Kit, HT29 lysate. It is filed as cell-based. To be noted: lysate of HT29 cells treated with 3g; SD ±3.03. On the procedure:
The test was performed on an HT29 colon adenocarcinoma cell line lysate treated with compound 3g. Cells from the HT29 line were harvested by centrifugation (non-adherent cells) and scraping from the culture flasks (adherent cells), and then the cells were washed twice with cold PBS. The supernatant was removed and discarded, and cell pellets were collected. The cell pellets were then lysed in a cell extraction container for 30 min on ice and […]. The lysate was transferred to microcentrifuge tubes and centrifuged at 13,000 rpm for 10 min at 4 °C. The supernatant was transferred to clean microcentrifuge tubes. Caspase-3 standard (active) was prepared from recombinant protein. The caspase-3 standard was reconstituted with the standard solvent solution at a concentration of 2.5 ng/mL. The contents were swirled and then left for 10 min to ensure complete dissolution. […]
In this method, a monoclonal capture antibody specific to caspase-3 (cleaved) was coated onto the wells of a 96-well plate. […] The absorbance at 450 nm was read for […] after the stop solution was added. […] Concentrations for unknown samples and controls were read from the standard curve. The intensity of the colored product was directly proportional to the concentration of the target protein present in the original specimen, and the optical density was read on a microplate reader. […]

With `Cc1noc(N)c1-c1nc2c(NCCCN(C)C)ncnc2o1` [Compound 3g, 2-(5-Amino-3-methylisoxazol-4-yl)-7-N-[3-(N,N-dimethylamino)propyl]aminooxazolo[5,4-d]pyrimidine], the half-maximal cytotoxic concentration (CC50) came to 156 ± 15.5 µM in data set [1]; 224 ± 17.1 µM in data set [2] (Homo sapiens, LoVo, MTT, tested 1–500 µM); 58.4 ± 8.75 µM in data set [3] (HT29, MTT); 58.4 µM in data set [3] (Homo sapiens, HT-29, HT29, MTT). Besides, the “SI (selectivity index)” value in data set [2] (CC50 NHDF / CC50 LoVo) was 0.695; in data set [3] (CC50 NHDF / CC50 HT29), 2.662. Also, in the data set with Caspase-3, the Caspase-3 concentration was 12.27 [ng/mL].
